Measurements as given in patent US12448383B2, “Compounds and methods for treatment of viral infections” (priority 2022, dated 2025).
Read-outs that look alike come from different tables or passages of the source.

What was measured:
[1] = system: Respiratory syncytial virus recombinant with luciferase (RSV-Luc5) in Normal Human Bronchial Epithelial (NHBE) cells; test: microbe, parasite or virus in culture; type: cell-based
[2] = CC50 MT4 cytotoxicity (Cell-Titer Glo); type: cell-based; conditions: human
Method in brief: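 CC50 values are the concentrations cutting viability by 50%, fitted by non-linear regression against untreated (100%) and 2 μM puromycin (0%) controls. Cell-Titer Glo luminescence measured after 4-5 days at 37° C exposure of uninfected MT-4 and HEp-2 cells to 3-fold dilutions spanning 15 nM to 100,000 nM.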

[3] = Stability in pH2 buffered solution; type: physicochemical; conditions: pH2 phosphate buffer, 40° C., 24 h; Table N2
Method: (§1) Example N: Stability in p112 and p117 Buffered Solutions
(§2) The aqueous stability of compounds over a time of 24 hours at 40° C. was assessed. Stability was determined in 50 mM phosphate buffered solutions at both pH2 and pH7, with 150 mM NaCl (to achieve isotonicity). 3-5 mg of solid compounds were added to 7 mL scintillation vials. Acetonitrile was added to each vial to produce a 1 mg/mL stock solution. Stock solutions were diluted to 50 μg/mL in either pH2 or pH7 phosphate buffer, to a volume of 1 mL. For each compound and pH condition, 50 μg/mL samples were prepped in duplicate. One sample was placed on the UPLC tray at 40° C. for analysis, and the second sample was placed in a 40° C. oven for storage. Sample preps for each compound were offset by 40 minutes to account for run time on UPLC.
(§3) Concentration timepoints were measured at 0, 3, 6, 9, and 12 hrs. After 24 hrs, samples in the 40° C. oven were removed and analyzed by UPLC.
(§4) In FIG. 2, % AN stands for % area normalized. That is, % AN is the area of the compound peak relative to the sum of areas of all the peaks in the UPLC chromatogram. For example, if there were two peaks, compound peak with an area of 9 and another peak with an area of 1, then the % AN of the compound peak would be 90%.

[4] = system: SARS Coronavirus 2 recombinant with NanoLuc (SARS-CoV2-NLuc) in A549-hACE2 cells; test: organism not typed; type: cell-based
[5] = GI S9 stability - no PMSF; type: in vitro ADME; set-up: GIS9-HUMAN-NoPMSF T1/2: unit: min; conditions: human intestinal S9, PMSF-free; for half-life at 2 µM: pH 7.4, read-out: GIS9-HUMAN-NoPMSF T1/2
Method in brief: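 Stability was assessed by Q-Exactive LC-MS peak area ratios against internal standard, tracking loss of parent and appearance of nucleoside metabolite Reference Compound A. Incubations used 2 μM compound in 1 mg/mL intestinal S9 without PMSF (PBS, pH 7.4), with six samples taken over 120 min.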

[6] = Plasma stability; type: in vitro ADME; set-up: unit not given here; conditions: 37° C., 2 μM substrate
Method in brief: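 LC-MS (Q-Exactive, 5 ppm tolerance, 0.1% formic acid water/acetonitrile gradient) quantified compound in quenched aliquots. Aliquots were taken at 0.05, 0.5, 1, 2, 3 and 4 hr and quenched with internal-standard solution, and supernatants were diluted with water after centrifugation.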

[7] = system: Caco-2 cells (clone C2BBe1); test: CACO-2 permeability; type: in vitro ADME; set-up: unit not given here; conditions: for DM Caco2 A to B: apical to basolateral, donor pH 6.5, receiver pH 7.4; for DM Caco2 B to A: basolateral to apical
Method in brief: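 A-to-B and B-to-A flux measured by LC-MS/MS from receiver samples taken at 1 and 2 h, with donor sampled at 0 and 2 h and recovery checked. Buffers: pH 6.5 HBSS with 200 μM BNPP on the donor side, pH 7.4 with BSA on the receiver side. Monolayers were 21-day cultures, TEER-verified, in duplicate wells.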

[8] = Stability in pH7 buffered solution; type: physicochemical; conditions: pH7 phosphate buffer, 40° C., Table N2
Method: as §1, §2, §3, §4

[9] = Thermodynamic solubility in pH7 buffered solution; conditions: 50 mM phosphate buffer pH7, 150 mM NaCl, ambient temperature, 24 hours
Method: Solubility was determined at ambient temperature in a 50 mM phosphate buffered pH7 solution with 150 mM NaCl (to achieve isotonicity). Solids were added to the buffered solution in 1.5-mL Eppendorf tubes, vortexed for 1 minute, then agitated for 24 hours in an Eppendorf ThermoMixer C. […] Supernatants were diluted to a volume of 1 mL with 30:70 v/v acetonitrile:water. All diluted supernatants were analyzed by UPLC using a Waters Acquity UPLC with a PDA UV detector.

[10] = physchem
[11] = system: Respiratory syncytial virus recombinant with luciferase (RSV-Luc5) in HEp-2 cells; test: microbe, parasite or virus in culture; type: cell-based; conditions: human respiratory syncytial virus, HEp-2, 72 h, read-out: RSV Hep2 EC50

COC(=O)[C@H]([C@@H](C)OC(=O)OC[C@H]1O[C@@](C#N)(c2ccc3c(N)ncnn23)[C@H](O)[C@@H]1O)N(C)C [Compound 78, methyl O-((((2R,3S,4R,5R)-5-(4-aminopyrrolo[2,1-f][1,2,4]triazin-7-yl)-5-cyano-3,4-dihydroxytetrahydrofuran-2-yl)methoxy)carbonyl)-N,N-dimethyl-L-threoninate]
EC50 ([1]; 72 h, read-out: RSV NHBE EC50): 3.6 µM | CC50 [2]: > 50 µM | pH 2 Stability 24 h % AN [3]: 90 % AN | EC50 ([4]; 48 h, read-out: SARS-CoV2 EC50): 3.58 µM | half-life at 2 µM [5]: 72.1 min | STA Human Plasma 37 [6]: 336.23 | DM Caco2 A to B [7]: 0.2 | DM Caco2 B to A [7]: 4.2 | pH 7 Stability 24 h % AN [8]: 0 % AN | Sol pH 7 [9]: 0.89

COC(=O)OC[C@H]1O[C@@](C#N)(c2ccc3c(N)ncnn23)[C@H](OC(=O)OC)[C@@H]1OC(=O)OC [Compound 93, (2R,3R,4R,5R)-2-(4-aminopyrrolo[2,1-f][1,2,4]triazin-7-yl)-2-cyano-5-(((methoxycarbonyl)oxy)methyl)tetrahydrofuran-3,4-diyl dimethyl bis(carbonate)]
EC50 ([1]; 72 h, read-out: RSV NHBE EC50): 11.1 µM | CC50 [2]: 31.7 µM | pH 2 Stability 24 h % AN [3]: 94 % AN | EC50 ([4]; 48 h, read-out: SARS-CoV2 EC50): 10.6 µM | half-life at 2 µM [5]: 1.02 min | STA Human Plasma 37 [6]: 28.444 | DM Caco2 A to B [7]: 1.2 | DM Caco2 B to A [7]: 8.3 | pH 7 Stability 24 h % AN [8]: 75 % AN | Sol pH 7 [9]: 0.62

CC(=O)O[C@H]1[C@@H](OC(C)=O)[C@](C#N)(c2ccc3c(N)ncnn23)O[C@@H]1COC(=O)OC(C)(C)c1ccncc1 [Compound 79, (2R,3R,4R,5R)-2-(4-aminopyrrolo[2,1-f][1,2,4]triazin-7-yl)-2-cyano-5-(((((2-(pyridin-4-yl)propan-2-yl)oxy)carbonyl)oxy)methyl)tetrahydrofuran-3,4-diyl diacetate]
EC50 ([1]; 72 h, read-out: RSV NHBE EC50): > 50 µM | CC50 [2]: > 50 µM | pH 2 Stability 24 h % AN [3]: 88 % AN | EC50 ([4]; 48 h, read-out: SARS-CoV2 EC50): > 50 µM | half-life at 2 µM [5]: 0.681 min | STA Human Plasma 37 [6]: 17.837 | DM Caco2 A to B [7]: 0.61 | DM Caco2 B to A [7]: 9.26 | pH 7 Stability 24 h % AN [8]: 77 % AN | Sol pH 7 [9]: 0.26

CC(C)OC(=O)Nc1ncnn2c([C@]3(C#N)O[C@H](COC(=O)OC(C)(C)C)[C@@H](O)[C@H]3O)ccc12 [Compound 63, isopropyl (7-((2R,3R,4S,5R)-5-(((tert-butoxycarbonyl)oxy)methyl)-2-cyano-3,4-dihydroxytetrahydrofuran-2-yl)pyrrolo[2,1-f][1,2,4]triazin-4-yl)carbamate]
EC50 ([1]; 72 h, read-out: RSV NHBE EC50): 41.6 µM | CC50 [2]: > 50 µM | pH 2 Stability 24 h % AN [3]: 3 % AN | EC50 ([4]; 48 h, read-out: SARS-CoV2 EC50): > 50 µM | half-life at 2 µM [5]: 181 min | STA Human Plasma 37 [6]: 1584 | DM Caco2 A to B [7]: 1.18 | DM Caco2 B to A [7]: 12.46 | pH 7 Stability 24 h % AN [8]: 0 % AN | Sol pH 7 [9]: 0.82

CCOC(=O)[C@H](C)OC(=O)OC[C@H]1O[C@@](C#N)(c2ccc3c(N)ncnn23)[C@H](O)[C@@H]1O [Compound 97, ethyl (S)-2-(((((2R,3S,4R,5R)-5-(4-aminopyrrolo[2,1-f][1,2,4]triazin-7-yl)-5-cyano-3,4-dihydroxytetrahydrofuran-2-yl)methoxy)carbonyl)oxy)propanoate]
EC50 ([1]; 72 h, read-out: RSV NHBE EC50): 6.16 µM | pH 2 Stability 24 h % AN [3]: 98 % AN | half-life at 2 µM [5]: 3.65 min | STA Human Plasma 37 [6]: 6.669 | DM Caco2 A to B [7]: 0.04 | DM Caco2 B to A [7]: 2.15 | pH 7 Stability 24 h % AN [8]: 85 % AN | Sol pH 7 [9]: 6.02

CC(C)OC(=O)[C@H]([C@@H](C)OC(=O)OC[C@H]1O[C@@](C#N)(c2ccc3c(N)ncnn23)[C@H](O)[C@@H]1O)N(C)C [Compound 145, isopropyl (2S,3R)-3-[[(2R,3S,4R,5R)-5-(4-aminopyrrolo[2,1-f][1,2,4]triazin-7-yl)-5-cyano-3,4-dihydroxy-tetrahydrofuran-2-yl]methoxycarbonyloxy]-2-(dimethylamino)butanoate]
EC50 ([1]; read-out: EC50 RSVFluc-NHBE 384 V2): 3.15 µM | CC50 [2]: > 50 µM | pH 2 Stability 24 h % AN [3]: 93 % AN | EC50 ([4]; A549, read-out: EC50 SARS CoV2 NanoLuc A549 384): 3.48 µM | half-life at 2 µM [5]: 32.8 min | logD [10]: 1.85 | STA Human Plasma 37 [6]: 299.49 | DM Caco2 A to B [7]: 0.2 | DM Caco2 B to A [7]: 8.475 | pH 7 Stability 24 h % AN [8]: 0 % AN

COCC(C)(C)OC(=O)OC[C@H]1O[C@@](C#N)(c2ccc3c(N)ncnn23)[C@H](O)[C@@H]1O [Compound 96, ((2R,3S,4R,5R)-5-(4-aminopyrrolo[2,1-f][1,2,4]triazin-7-yl)-5-cyano-3,4-dihydroxytetrahydrofuran-2-yl)methyl (1-methoxy-2-methylpropan-2-yl) carbonate]
EC50 ([1]; 72 h, read-out: RSV NHBE EC50): > 50 µM | CC50 [2]: > 50 µM | pH 2 Stability 24 h % AN [3]: 96 % AN | GIS9-HUMAN-NoPMSF T1/2 [5]: 789 | STA Human Plasma 37 [6]: 1584 | DM Caco2 A to B [7]: 0.09 | DM Caco2 B to A [7]: 4.05 | pH 7 Stability 24 h % AN [8]: 95 % AN | Sol pH 7 [9]: 1.25

CC(C)OC(=O)OC[C@H]1O[C@@](C#N)(c2ccc3c(N)ncnn23)[C@@H]2OC(=O)O[C@@H]21 [Compound 66, ((3aR,4R,6R,6aR)-6-(4-aminopyrrolo[2,1-f][1,2,4]triazin-7-yl)-6-cyano-2-oxotetrahydrofuro[3,4-d][1,3]dioxol-4-yl)methyl isopropyl carbonate]
EC50 ([1]; 72 h, read-out: RSV NHBE EC50): 0.499 µM | CC50 [2]: > 50 µM | pH 2 Stability 24 h % AN [3]: 2 % AN | EC50 [11]: 0.847 µM | EC50 ([4]; 48 h, read-out: SARS-CoV2 EC50): 3.21 µM | half-life at 2 µM [5]: 0.491 min | STA Human Plasma 37 [6]: 24.2 | pH 7 Stability 24 h % AN [8]: 0 % AN
